Laboratory results published in PubChem BioAssay AID330 (DTP/NCI, 2004).
Inconclusive results and toxic doses are left out.

Tested on: P388 leukemia ip, CD2F1 mice, survival T/C
Assay: NCI In Vivo Anticancer Drug Screen. Data for tumor model P388 Leukemia (intraperitoneal) in CD2F1 (CDF1) mice
Conditions: endpoint: median survival time, higher = longer survival
Outline: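 Mice carrying the transplanted tumor received test compound or vehicle. Survival was recorded in each group, and the value is the treated-group measurement divided by that of the vehicle-treated control group.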

## N#C/C(=N\N=C(/C#N)c1ccc(Cl)cc1)c1ccc(Cl)cc1
dose: 50.0 mg/kg/injection, schedule: Q01DX005 (ip), vehicle: saline with Tween-80
  T/C: 97 % of control
dose: 100.0 mg/kg/injection, schedule: Q01DX005 (ip), vehicle: saline with Tween-80
  T/C: 94 % of control
dose: 200.0 mg/kg/injection, schedule: Q01DX005 (ip), vehicle: saline with Tween-80
  T/C: 88 % of control

## COC(=O)c1n[nH]nc1CC(N)=O
dose: 50.0 mg/kg/injection, schedule: Q01DX005 (ip), vehicle: saline
  T/C: 105 % of control
dose: 100.0 mg/kg/injection, schedule: Q01DX005 (ip), vehicle: saline
  T/C: 105 % of control
dose: 200.0 mg/kg/injection, schedule: Q01DX005 (ip), vehicle: saline
  T/C: 103 % of control

## C1CCC2CC3NC3CC2C1 (stereo unspecified)
dose: 50.0 mg/kg/injection, schedule: Q01DX009 (ip), vehicle: saline
  T/C: 101 % of control
dose: 100.0 mg/kg/injection, schedule: Q01DX009 (ip), vehicle: saline
  T/C: 105 % of control
dose: 200.0 mg/kg/injection, schedule: Q01DX009 (ip), vehicle: saline
  T/C: 101 % of control

## N#CN(Cc1ccccc1)C(c1ccccc1)(c1ccccc1)c1ccccc1.[Br][Sn]([c]1ccccc1)([c]1ccccc1)[c]1ccccc1
dose: 1.5 mg/kg/injection, schedule: Q01DX005 (ip), vehicle: saline with Tween-80
  T/C: 98 % of control
dose: 3.0 mg/kg/injection, schedule: Q01DX005 (ip), vehicle: saline with Tween-80
  T/C: 100 % of control
dose: 6.0 mg/kg/injection, schedule: Q01DX005 (ip), vehicle: saline with Tween-80
  T/C: 101 % of control
dose: 6.25 mg/kg/injection, schedule: Q01DX005 (ip), vehicle: saline with Tween-80
  T/C: 94 % of control

## NCCCCS(=O)(=O)Nc1ccc(Nc2c3ccccc3nc3cc([N+](=O)[O-])ccc23)cc1
dose: 22.0 mg/kg/injection, schedule: Q04DX003 (ip), vehicle: saline
  T/C: 122 % of control
dose: 38.9 mg/kg/injection, schedule: Q04DX003 (ip), vehicle: water
  T/C: 164 % of control
dose: 50.0 mg/kg/injection, schedule: Q04DX003 (ip), vehicle: saline
  T/C: 150 % of control
dose: 64.8 mg/kg/injection, schedule: Q04DX003 (ip), vehicle: water
  T/C: 180 % of control
dose: 75.0 mg/kg/injection, schedule: Q04DX003 (ip), vehicle: saline
  T/C: 150 % of control
dose: 108.0 mg/kg/injection, schedule: Q04DX003 (ip), vehicle: water
  T/C: 198 % of control
dose: 150.0 mg/kg/injection, schedule: Q04DX003 (ip), vehicle: saline
  T/C: 172 % of control
dose: 180.0 mg/kg/injection, schedule: Q04DX003 (ip), vehicle: water
  T/C: 99 % of control
dose: 300.0 mg/kg/injection, schedule: Q04DX003 (ip), vehicle: saline
  T/C: 118 % of control

## CS(=O)(=O)OCC(O)C(O)C(O)C(O)COS(C)(=O)=O (stereo unspecified)
dose: 50.0 mg/kg/injection, schedule: Q01DX010 (ip), vehicle: saline
  T/C: 100 % of control
dose: 100.0 mg/kg/injection, schedule: Q01DX010 (ip), vehicle: saline
  T/C: 100 % of control
dose: 200.0 mg/kg/injection, schedule: Q01DX010 (ip), vehicle: saline
  T/C: 172 % of control
dose: 400.0 mg/kg/injection, schedule: Q01DX010 (ip), vehicle: saline
  T/C: 209 % of control

## O=C(O)CC(CC(=O)O)CN(CC(=O)O)Cc1ccccc1
dose: 20.0 mg/kg/injection, schedule: Q01DX005 (ip), vehicle: Klucel (hydroxypropylcellulose) (HPC)
  T/C: 102 % of control
dose: 40.0 mg/kg/injection, schedule: Q01DX005 (ip), vehicle: Klucel (hydroxypropylcellulose) (HPC)
  T/C: 90 % of control
dose: 80.0 mg/kg/injection, schedule: Q01DX005 (ip), vehicle: Klucel (hydroxypropylcellulose) (HPC)
  T/C: 91 % of control

## Cc1ccccc1-[n+]1noc(N)n1
dose: 3.13 mg/kg/injection, schedule: Q01DX009 (ip), vehicle: water
  T/C: 101 % of control
dose: 6.25 mg/kg/injection, schedule: Q01DX009 (ip), vehicle: water
  T/C: 113 % of control
dose: 12.5 mg/kg/injection, schedule: Q01DX009 (ip), vehicle: water
  T/C: 120 % of control
dose: 14.7 mg/kg/injection, schedule: Q01DX009 (ip), vehicle: water
  T/C: 106 % of control

## CNC(=S)NNc1ccccn1
dose: 12.5 mg/kg/injection, schedule: Q01DX009 (ip), vehicle: other
  T/C: 105 % of control
dose: 25.0 mg/kg/injection, schedule: Q01DX009 (ip), vehicle: other
  T/C: 102 % of control
dose: 50.0 mg/kg/injection, schedule: Q01DX009 (ip), vehicle: other
  T/C: 104 % of control
dose: 100.0 mg/kg/injection, schedule: Q01DX009 (ip), vehicle: other
  T/C: 101 % of control
dose: 200.0 mg/kg/injection, schedule: Q01DX009 (ip), vehicle: other
  T/C: 95 % of control

## O=C1c2ccccc2C(=O)c2nc(CBr)c(CBr)nc21
dose: 5.0 mg/kg/injection, schedule: Q01DX005 (ip), vehicle: saline
  T/C: 100 % of control
dose: 10.0 mg/kg/injection, schedule: Q01DX005 (ip), vehicle: saline
  T/C: 100 % of control
dose: 20.0 mg/kg/injection, schedule: Q01DX005 (ip), vehicle: saline
  T/C: 97 % of control
